According to PubChem BioAssay AID1963828 (Molecular Pharmacology Branch, DTP, NCI, 2024):

System: 991263-137-R1-J2-PDC complex spheroid viability
Test: Anticancer human tumor 991263-137-R1-J2-PDC patient-derived colon adenocarcinoma cell line growth inhibition [POLQ]
Details: for IC50: curve of first compound; for viability, T/C: stronger effect = lower value
Protocol: Multicellular complex tumor spheroid response to Polymerase (POL) inhibitors (novobiocin, ART-558, RP6685) in combination with a variety of drugs and investigational agents in selected tumor cell lines
The POL inhibitors (novobiocin, ART-558, and RP6685) were evaluated both individually and in combination with standard of care and investigational anticancer small molecules within a complex spheroid model of solid tumors. . Complex spheroids include a stromal component modeled by human endothelial cells (HUVEC) and fibroblasts modeled by human mesenchymal stem cells (MSCs). The concentration ranges selected for each drug and investigational agent were based upon clinically achievable concentrations if the clinical Cmax of the agent was known.
Compounds. The drugs and investigational agents: novobiocin (NSC847541), ART-558 (NSC835418), RP-6685 (NSC848927), peposertib (NSC802822), ceralasertib (NSC780249), elimusertib (NSC800525), camonsertib (NSC841442), AZD-1390 (NSC803789), olaparib (NSC753686), talazoparib (NSC767125), rucaparib (NSC756644), sotorasib (NSC818433), MRTX-1133 (NSC836407), SN-38 (NSC673596), topotecan (NSC609699), epotoside (NSC141540), doxorubicin (NSC123127), gemcitabine (NSC613327), 5-fluorouracil (NSC19893), paclitaxel (NSC125973), vemurafenib (NSC761431), MSA-2 (NSC828583), SN-011 (NSC837082), adavosertib (NSC754352), prexasertib (NSC758257), carboplatin (NSC241240) and oxaliplatin (NSC266046), were obtained from the National Cancer Institute (NCI) Developmental Therapeutics Program Chemical Repository (21). The FDA-approved anticancer drug set is available from the Developmental Therapeutics Program at https://dtp.cancer.gov/organization/dscb/obtaining/. […] The stock solutions were prepared in dimethyl sulfoxide (DMSO, Sigma-Aldrich, St. Louis, MO, cat. D2650), except for the platinum compounds which were prepared in saline (Quality Biological, Gaithersburg, MD, cat. 114-055-101), at 800-fold the tested concentration and stored at -70 degrees C prior to their use. All drugs and investigational agents were tested over a range starting from a high concentration at or near the clinical Cmax and decreasing in half-log increments. If the clinical Cmax for an agent had not been determined, the highest concentration tested was 10 microM, except for SN-38, which was tested at a high concentration of 1 microM.
Cell Culture. All cells were maintained in an incubator at 37 degrees C and 5% CO2 with 95% humidity. The PDC lines were cultured according to standard operating procedures established by the NCI PDMR (https://pdmr.cancer.gov). Table 3 of the manuscript, lists the cell lines along with the number of the three cell types plated to form the mct-spheroids and media for tumor cell growth. After thawing, all PDC lines, except 997537-175-T-J1-PDC and 415267-285-R-J2-PDC, were cultured in Matrigel-coated flasks prepared with a working solution of 1X Ham's F-12 nutrient mix, without supplementation (Thermo Fisher Scientific, cat. 11765054), 100 U/mL penicillin-streptomycin (Thermo Fisher Scientific, cat. 15140122), and 2.5% Matrigel (Corning Inc., Corning, NY, cat. 354248) for the first three passages. The two PDC lines 997537-175-T-J1-PDC and 415267-285-R-J2-PDC were cultured on uncoated flasks. The 857933-349-R-J2-PDC line was cultured in 6C/Colon 1B media containing advanced DMEM/F-12 (Thermo Fisher Scientific, cat. 12634028), 10 mM HEPES (Thermo Fisher Scientific, cat. 15630080), 1X GlutaMAX supplement (Thermo Fisher Scientific, cat. 35050061), 0.1 mg/mL primocin (InvivoGen, San Diego, CA, cat. ant-pm-2), 10% defined fetal bovine serum, heat inactivated (HyClone Laboratories Inc., Logan, UT, cat. SH30070.03HI), 50% L-WRN conditioned media (ATCC, cat. CRL-3276), 1.25 mM N-Acetyl-L-cysteine (Sigma-Aldrich, cat. A9165), 10 mM nicotinamide (Sigma-Aldrich, cat. N0636), 1X B-27 supplement (Thermo Fisher Scientific, cat. 17504044), 1X N-2 supplement (Thermo Fisher Scientific, cat. […]
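Note: spheroids exposed to compounds for 7 days before readout.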
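Throughout, for viability, T/C: 100% = DMSO vehicle control viability.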

COc1cccc2c1C(=O)c1c(O)c3c(c(O)c1C2=O)CC(O)(C(=O)CO)CC3OC1CC(N)C(O)C(C)O1 (configuration not stated) + COC1C(OC(N)=O)C(O)C(Oc2ccc3c(O)c(NC(=O)c4ccc(O)c(CC=C(C)C)c4)c(=O)oc3c2C)OC1(C)C
IC50 (second compound 0.0316 µM): 1.54 µM
IC50 (second compound 0.1 µM): 1.21 µM
IC50 (second compound 0.316 µM): 1.18 µM
IC50 (second compound 1 µM): 1.13 µM
IC50 (second compound 3.16 µM): 1.6 µM
IC50 (second compound 10 µM): 1.03 µM
viability, T/C (second compound 0.0316 µM, first compound 0.0316 µM): 116%
viability, T/C (second compound 0.0316 µM, first compound 0.1 µM): 101%
viability, T/C (second compound 0.0316 µM, first compound 0.316 µM): 93.3%
viability, T/C (second compound 0.0316 µM, first compound 1 µM): 55.7%
viability, T/C (second compound 0.0316 µM, first compound 3.16 µM): 38.1%
viability, T/C (second compound 0.0316 µM, first compound 10 µM): 31.1%
viability, T/C (second compound 0.1 µM, first compound 0.0316 µM): 104%
viability, T/C (second compound 0.1 µM, first compound 0.1 µM): 115%
viability, T/C (second compound 0.1 µM, first compound 0.316 µM): 92.5%
viability, T/C (second compound 0.1 µM, first compound 1 µM): 51.9%
viability, T/C (second compound 0.1 µM, first compound 3.16 µM): 45.1%
viability, T/C (second compound 0.1 µM, first compound 10 µM): 34.9%
viability, T/C (second compound 0.316 µM, first compound 0.0316 µM): 107%
viability, T/C (second compound 0.316 µM, first compound 0.1 µM): 116%
viability, T/C (second compound 0.316 µM, first compound 0.316 µM): 76%
viability, T/C (second compound 0.316 µM, first compound 1 µM): 55.4%
viability, T/C (second compound 0.316 µM, first compound 3.16 µM): 43.1%
viability, T/C (second compound 0.316 µM, first compound 10 µM): 33.1%
viability, T/C (second compound 1 µM, first compound 0.0316 µM): 101%
viability, T/C (second compound 1 µM, first compound 0.1 µM): 120%
viability, T/C (second compound 1 µM, first compound 0.316 µM): 93.1%
viability, T/C (second compound 1 µM, first compound 1 µM): 51.5%
viability, T/C (second compound 1 µM, first compound 3.16 µM): 39.6%
viability, T/C (second compound 1 µM, first compound 10 µM): 27.4%
viability, T/C (second compound 3.16 µM, first compound 0.0316 µM): 109%
viability, T/C (second compound 3.16 µM, first compound 0.1 µM): 109%
viability, T/C (second compound 3.16 µM, first compound 0.316 µM): 92.2%
viability, T/C (second compound 3.16 µM, first compound 1 µM): 56.6%
viability, T/C (second compound 3.16 µM, first compound 3.16 µM): 41.9%
viability, T/C (second compound 3.16 µM, first compound 10 µM): 31.8%
viability, T/C (second compound 10 µM, first compound 0.0316 µM): 88.1%
viability, T/C (second compound 10 µM, first compound 0.1 µM): 106%
viability, T/C (second compound 10 µM, first compound 0.316 µM): 102%
viability, T/C (second compound 10 µM, first compound 1 µM): 50.1%
viability, T/C (second compound 10 µM, first compound 3.16 µM): 56.2%
viability, T/C (second compound 10 µM, first compound 10 µM): 33.9%
